Calls of active or inactive are those of the source. The calls are words filed in the database; no cut-off is given here.

This experiment concerns Endothelial cell. Kind of experiment: Tested for inhibition of Endothelin-converting enzyme derived from bovine endothelial cell; NA means inactive uM. Format: cell-based.
`COC(=O)[C@@H](NC(=O)[C@H](CC(N)=O)NC(=O)/C(=C\C(=O)[C@H](Cc1c[nH]c2ccccc12)NC(=O)OC(C)(C)C)C(C)C)C(C)C(=O)C(C)(C)C` (stereo partly drawn): the inhibition entry was “inactive”. On to `CCOC(=O)/C(=C/C(=O)[C@H](Cc1c[nH]c2ccccc12)NC(=O)OC(C)(C)C)C(C)C`, for which the inhibition entry is “inactive”. On to `CC(C)/C(=C/C(=O)[C@H](Cc1c[nH]c2ccccc12)NC(=O)OC(C)(C)C)C(=O)O`, for which the inhibition result is “inactive”.

These data come from ChEMBL document CHEMBL1126503, “Syntheis of TRP-VAL non-cleavable dipeptide transition state isosteres” (Bioorg Med Chem Lett, 1993).
